Results on 1 substance are retold here after PMC3477287 (ACS chemical biology, 2012).

The test has as its target MbtA (Mycobacterium tuberculosis, UniProt P71716). The test is described as follows: […]. Type of test: biochemical.

Chain of MbtA (P71716 whole entry): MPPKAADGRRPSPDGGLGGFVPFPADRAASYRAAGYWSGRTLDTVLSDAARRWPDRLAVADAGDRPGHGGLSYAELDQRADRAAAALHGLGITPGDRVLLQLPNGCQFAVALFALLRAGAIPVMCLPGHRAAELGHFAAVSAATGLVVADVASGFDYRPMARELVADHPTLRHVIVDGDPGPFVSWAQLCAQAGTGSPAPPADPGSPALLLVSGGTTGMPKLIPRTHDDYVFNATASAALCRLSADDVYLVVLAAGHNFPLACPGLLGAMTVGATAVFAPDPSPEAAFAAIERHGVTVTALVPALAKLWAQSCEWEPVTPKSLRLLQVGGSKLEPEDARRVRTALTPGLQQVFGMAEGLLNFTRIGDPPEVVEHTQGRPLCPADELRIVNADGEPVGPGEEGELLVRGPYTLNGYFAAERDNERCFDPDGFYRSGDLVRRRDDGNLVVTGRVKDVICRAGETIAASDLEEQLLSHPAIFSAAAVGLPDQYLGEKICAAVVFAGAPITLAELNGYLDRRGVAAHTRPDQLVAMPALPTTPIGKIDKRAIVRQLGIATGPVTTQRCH

As to Sal-AMS ABP [compound 6], the inhibitory constant (Ki) is 0.94 nM.

The term Ki denotes a measure of affinity in units of concentration, obtained from inhibition or displacement. Higher therefore signals weaker binding.
